Test results as given in the Kinase Knowledgebase extract (Sharma et al. 2016).
Values joined by “and” are separate entries in the source; they are usually repeats but may differ in a detail not shown here. Equal values may be shown once.

Experiments:
[1] = molecular target: EGFR (UniProt P00533)
[2] = molecular target: CDK2 (UniProt P24941); assay: Enzyme Assay
[3] = molecular target: EGFR (UniProt P00533); remark: listed apart in the source
[4] = molecular target: EGFR (UniProt P00533); remark: listed apart in the source
[5] = molecular target: EGFR (mouse) (UniProt P00533); settings: nih3t3

EGFR, sequence (P00533 whole entry, looked up): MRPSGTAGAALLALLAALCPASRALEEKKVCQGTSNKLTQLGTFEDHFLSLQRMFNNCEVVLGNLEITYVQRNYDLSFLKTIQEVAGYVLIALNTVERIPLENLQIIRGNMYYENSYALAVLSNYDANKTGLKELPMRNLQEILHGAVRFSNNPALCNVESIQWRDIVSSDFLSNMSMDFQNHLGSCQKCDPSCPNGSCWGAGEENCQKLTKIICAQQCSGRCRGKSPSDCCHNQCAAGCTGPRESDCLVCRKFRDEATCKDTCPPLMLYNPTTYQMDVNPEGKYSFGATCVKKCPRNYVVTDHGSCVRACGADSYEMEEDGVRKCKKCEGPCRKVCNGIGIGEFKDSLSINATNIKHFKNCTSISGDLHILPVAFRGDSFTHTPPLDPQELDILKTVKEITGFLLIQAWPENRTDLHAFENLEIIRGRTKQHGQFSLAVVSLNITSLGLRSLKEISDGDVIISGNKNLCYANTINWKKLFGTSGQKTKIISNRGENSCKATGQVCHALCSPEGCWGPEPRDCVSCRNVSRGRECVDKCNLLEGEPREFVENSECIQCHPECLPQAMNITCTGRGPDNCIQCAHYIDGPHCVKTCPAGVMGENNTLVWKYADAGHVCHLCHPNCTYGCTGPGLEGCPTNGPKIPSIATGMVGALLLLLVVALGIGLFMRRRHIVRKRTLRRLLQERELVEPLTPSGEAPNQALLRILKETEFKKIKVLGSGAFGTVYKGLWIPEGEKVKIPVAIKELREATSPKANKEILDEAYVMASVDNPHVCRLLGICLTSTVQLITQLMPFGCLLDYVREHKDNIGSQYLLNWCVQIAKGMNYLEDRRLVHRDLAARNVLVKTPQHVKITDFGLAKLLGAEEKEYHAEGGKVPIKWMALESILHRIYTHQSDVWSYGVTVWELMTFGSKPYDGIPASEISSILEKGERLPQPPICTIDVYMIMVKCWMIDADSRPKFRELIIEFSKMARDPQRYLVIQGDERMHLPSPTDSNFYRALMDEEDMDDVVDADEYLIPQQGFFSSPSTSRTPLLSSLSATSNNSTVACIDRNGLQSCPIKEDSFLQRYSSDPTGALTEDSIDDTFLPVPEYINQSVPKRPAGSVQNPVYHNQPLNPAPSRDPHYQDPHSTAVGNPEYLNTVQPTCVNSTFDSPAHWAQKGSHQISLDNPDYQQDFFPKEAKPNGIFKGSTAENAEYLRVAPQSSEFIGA

SMILES | IC50 [1] | IC50 [2] | IC50 [3] | IC50 [4] | IC50 [5]
CC(C)(C)c1cc(C(=O)Nc2cccc(C(F)(F)F)c2)n(Cc2ccccc2)n1 | 53.4 µM |  |  |  | 
O=C1Nc2ccc(F)cc2/C1=C\c1c[nH]cn1 |  | 7.7 µM |  |  | 
Cc1cccc2c1/C(=C\c1c[nH]cn1)C(=O)N2 |  | 1.1 µM |  |  | 
COc1ccccc1-c1ccc2c(c1)NC(=O)/C2=C\c1[nH]c2c(c1C)CCCC2 | > 50 µM |  | > 100 µM | > 100 µM | 
COc1ccccc1-c1ccc2c(c1)NC(=O)/C2=C\c1[nH]c2c(c1CCC(=O)O)CCCC2 |  |  | > 100 µM | > 100 µM | 
CC(C)(C)c1cc(C(=O)Nc2cccnc2)n(Cc2ccccc2)n1 | > 100 µM |  |  |  | 
Nc1ccc2c(c1)/C(=C\c1c[nH]cn1)C(=O)N2 |  | < 0.78 µM |  |  | 
COc1cccc(-c2ccc3c(c2)NC(=O)/C3=C\c2cnc[nH]2)c1 | > 50 µM and 27.4 µM |  | > 100 µM | > 100 µM | 
O=C1Nc2ccc(Cl)cc2/C1=C\c1c[nH]cn1 |  | < 0.78 µM |  |  | 
COc1ccc(-c2ccccc2)cc1NC(=O)c1cc(C(C)(C)C)nn1Cc1ccccc1 | > 50 µM |  |  |  | 
CCc1cc(CC)c(/C=C2\C(=O)Nc3cc(-c4cccc(OC)c4)ccc32)[nH]1 | > 50 µM and 30.9 µM |  | > 100 µM | > 100 µM | 
COc1ccccc1-c1ccc2c(c1)NC(=O)/C2=C\c1cc2c([nH]1)CCCC2 | 34.1 µM |  | > 100 µM | > 100 µM | 
CCOc1cccc(-c2ccc3c(c2)NC(=O)/C3=C\c2[nH]c(CC)cc2CC)c1 | > 50 µM |  | > 100 µM | > 100 µM | 
COc1c(C(C)C)cc(/C=C2\C(=O)Nc3cc(-c4ccccc4)ccc32)cc1C(C)C |  |  | > 100 µM | > 100 µM | 
COc1ccc(-c2ccc3c(c2)NC(=O)/C3=C\c2[nH]c3c(c2C)CCCC3)cc1 | > 50 µM |  | > 100 µM | > 100 µM | 
O=C1Nc2c(Br)cc(Cl)cc2/C1=C\c1c[nH]cn1 |  | 9.3 µM |  |  | 
CC(C)(C)c1cc(C(=O)Nc2ccncc2)n(Cc2ccccc2)n1 | 28.2 µM |  |  |  | 
CCc1cc(CC)c(/C=C2\C(=O)Nc3cc(-c4ccccc4OC)ccc32)[nH]1 |  |  | > 100 µM | > 100 µM | 
Cc1ccc(Cn2nc(C)cc2C(=O)Nc2cccc(C(F)(F)F)c2)cc1 | 6.3 µM and 9.8 µM |  |  |  | 
CCn1c2ccccc2c2cc(NC(=O)c3cc(C(C)(C)C)nn3Cc3ccccc3)ccc21 | > 50 µM |  |  |  | 
COc1ccc(-c2ccc3c(c2)NC(=O)/C3=C\c2[nH]c3c(c2CCC(=O)O)CCCC3)cc1 |  |  | > 100 µM | > 100 µM | 
Cc1cc(/C=C2/C(=O)Nc3ccccc32)c(C)c2c1[nH]c1ccccc12 | 7.03 µM |  |  |  | > 100 µM
COc1ccc(NC(=O)c2cc(C(C)(C)C)nn2Cc2ccccc2)cc1-c1ccccc1 | > 50 µM |  |  |  | 
O=C1Nc2cc(-c3ccccc3)ccc2/C1=C/c1cc2c([nH]1)CCCC2 | > 50 µM |  | > 100 µM | > 100 µM | 

SMILES | IC50 [1] | IC50 [2] | IC50 [3] | IC50 [4] | IC50 [5]
CC(C)(C)c1cc(C(=O)c2nccc3ccccc23)n(Cc2ccccc2)n1 | 22.5 µM |  |  |  | 
Cc1ccc(Cn2nc(C)cc2C(=O)Nc2ccc(C(F)(F)F)cc2)cc1 | 7.1 µM and 9.8 µM |  |  |  | 
CC(C)(C)c1cc(C(=O)Nc2c(F)c(F)nc(F)c2F)n(Cc2ccccc2)n1 | 26 µM |  |  |  | 
CC(C)(C)c1cc(C(=O)Nc2ccccn2)n(Cc2ccccc2)n1 | > 100 µM |  |  |  | 
CC(C)(C)c1cc(C(=O)Nc2cnc3ccccc3c2)n(Cc2ccccc2)n1 | 10.2 µM |  |  |  | 
Cc1cc(C)c(NC(=O)c2cc(C(C)(C)C)nn2Cc2ccccc2)cn1 | 69.6 µM |  |  |  | 
COc1cccc(-c2cc(NC(=O)c3cc(C(C)(C)C)nn3Cc3ccccc3)ccc2OC)c1 | > 50 µM |  |  |  | 
CC(C)(C)c1cc(C(=O)Nc2ccc3oc(=O)c4ccccc4c3c2)n(Cc2ccccc2)n1 | 43 µM |  |  |  | 
COc1ccc(-c2ccc3c(c2)NC(=O)/C3=C\c2ccc(C)s2)cc1 | > 50 µM |  | > 100 µM | > 100 µM | 
CC(C)(C)c1cc(C(=O)Nc2ccc(O)c(-c3cccc(-c4ccccc4)c3)c2)n(Cc2ccccc2)n1 | > 50 µM |  |  |  | 
O=C(O)CCc1c(/C=C2\C(=O)Nc3cc(-c4ccccc4)ccc32)[nH]c2c1CCCC2 |  |  | > 100 µM | > 100 µM | 
COc1cccc(-c2ccc3c(c2)NC(=O)/C3=C\c2[nH]c3c(c2CCC(=O)O)CCCC3)c1 | 37.1 µM |  | > 100 µM | 11.4 µM | 
COc1ccc(-c2ccc3c(c2)NC(=O)/C3=C\c2cc3c([nH]2)CCCC3)cc1 | > 50 µM |  | > 100 µM | > 100 µM | 
COc1ccccc1-c1ccc2c(c1)NC(=O)/C2=C\c1cnc[nH]1 |  |  | > 100 µM | > 100 µM | 
CC(C)(C)c1cc(C(=O)Nc2ccc(C(F)(F)F)cn2)n(Cc2ccccc2)n1 | 46.8 µM |  |  |  | 
Cc1cccnc1NC(=O)c1cc(C(C)(C)C)nn1Cc1ccccc1 | 53.4 µM |  |  |  | 
CCOc1cccc(-c2ccc3c(c2)NC(=O)/C3=C\c2[nH]c(C)cc2C)c1 | > 50 µM |  | > 100 µM | > 100 µM | 
CCc1cc(CC)c(/C=C2\C(=O)Nc3cc(-c4ccc(OC)cc4)ccc32)[nH]1 | > 50 µM |  | > 100 µM | > 100 µM | 
CC(C)(C)c1cc(C(=O)Nc2ccc3c(c2)OCO3)n(Cc2ccccc2)n1 | 50.1 µM |  |  |  | 
COc1cccc(-c2ccc3c(c2)NC(=O)/C3=C\c2[nH]c(C)cc2C)c1 | > 50 µM and 27.3 µM |  | > 100 µM | > 100 µM | 
Cc1cnc2ccccc2c1NC(=O)c1cc(C(C)(C)C)nn1Cc1ccccc1 | 21.2 µM |  |  |  | 
Cc1cc(C)c2c(c1)NC(=O)/C2=C/c1c[nH]cn1 |  | < 0.78 µM |  |  | 
CCc1cc(CC)c(/C=C2\C(=O)Nc3cc(-c4ccccc4)ccc32)[nH]1 | > 50 µM |  | > 100 µM | > 100 µM | 
Cc1cc(C)c(/C=C2\C(=O)Nc3cc(-c4ccccc4)ccc32)[nH]1 | > 50 µM |  | > 100 µM | > 100 µM | 

SMILES | IC50 [1] | IC50 [2] | IC50 [3] | IC50 [4] | IC50 [5]
COc1ccc(-c2ccc3c(c2)NC(=O)/C3=C\c2[nH]c(C)cc2C)cc1 | > 50 µM |  | > 100 µM | > 100 µM | 
CC(C)(C)c1cc(C(=O)Nc2cccc(-c3ccccc3)c2)n(Cc2ccccc2)n1 | > 50 µM |  |  |  | 
COc1cccc(-c2ccc3c(c2)NC(=O)/C3=C\c2cc3c([nH]2)CCCC3)c1 | 31.8 µM and > 50 µM |  | > 100 µM |  | 
CC(=O)Nc1ccc2c(c1)C(=O)c1cc(NC(=O)c3cc(C(C)(C)C)nn3Cc3ccccc3)ccc1-2 | 4.4 µM |  |  |  | 
COc1cc2c(cc1OC)/C(=C\c1c[nH]cn1)C(=O)N2 |  | 2.4 µM |  |  | 
COc1ccc(NC(=O)c2cc(C(C)(C)C)nn2Cc2ccccc2)c(OC)n1 | > 100 µM |  |  |  | 
Cc1ccc(/C=C2\C(=O)Nc3cc(-c4ccccc4)ccc32)s1 | > 50 µM |  | > 100 µM | > 100 µM | 
COc1cccc(-c2ccc3c(c2)NC(=O)/C3=C\c2[nH]c3c(c2C)CCCC3)c1 | > 50 µM |  | > 100 µM | > 100 µM | 
CC(C)(C)c1cc(C(=O)Nc2cc3ccccc3cn2)n(Cc2ccccc2)n1 | > 100 µM |  |  |  | 
O=C1Nc2cc(-c3ccccc3)ccc2/C1=C/c1cnc[nH]1 | > 50 µM |  | > 100 µM | > 100 µM | 
CC(C)(C)c1cc(C(=O)Nc2cccc3c2C(=O)c2ccccc2-3)n(Cc2ccccc2)n1 | > 50 µM |  |  |  | 
COc1ccc(-c2ccc3c(c2)NC(=O)/C3=C\c2cnc[nH]2)cc1 | > 50 µM |  | > 100 µM | > 100 µM | 
CCOc1cccc(-c2ccc3c(c2)NC(=O)/C3=C\c2cc3c([nH]2)CCCC3)c1 | > 50 µM |  | > 100 µM | > 100 µM | 
O=C1Nc2ccc([N+](=O)[O-])cc2/C1=C\c1c[nH]cn1 |  | < 0.78 µM |  |  | 
CCOc1cccc(-c2ccc3c(c2)NC(=O)/C3=C\c2ccc(C)s2)c1 | > 50 µM |  | > 100 µM | > 100 µM | 
O=C1Nc2ccccc2/C1=C\c1c[nH]cn1 |  | < 0.78 µM |  |  | 
CC(C)(C)c1cc(C(=O)Nc2ccc(C(F)(F)F)cc2)n(Cc2ccccc2)n1 | 15.6 µM |  |  |  | 
CCOc1cccc(-c2ccc3c(c2)NC(=O)/C3=C\c2cnc[nH]2)c1 | > 50 µM |  | > 100 µM | > 100 µM | 
CC(C)(C)c1cc(C(=O)Nc2ccccc2C(F)(F)F)n(Cc2ccccc2)n1 | 46.8 µM |  |  |  | 
COc1cccc(-c2ccc3c(c2)NC(=O)/C3=C\c2ccc(N3CCN(C=O)CC3)cc2)c1 | > 50 µM |  | > 100 µM | > 100 µM | 
COc1cccc(-c2ccc3c(c2)NC(=O)/C3=C\c2cc(C(C)C)c(OC)c(C(C)C)c2)c1 | 13.7 µM |  | > 100 µM | > 100 µM | 
CCOc1cccc(-c2ccc3c(c2)NC(=O)/C3=C\c2cc(C(C)C)c(OC)c(C(C)C)c2)c1 | 19.6 µM |  | > 100 µM | > 100 µM | 
Cc1ccnc(NC(=O)c2cc(C(C)(C)C)nn2Cc2ccccc2)c1 | 50.1 µM |  |  |  | 
COc1ccccc1-c1ccc2c(c1)NC(=O)/C2=C\c1[nH]c(C)cc1C |  |  | > 100 µM | > 100 µM | 
